Measurements taken from patent publication US10335388B2, “Combination therapy of a HIF-2-alpha inhibitor and an immunotherapeutic agent and uses thereof” (PELOTON THERAPEUTICS, INC., priority 2015, dated 2019).

Columns and labels:
[1] = system: CT26.WT mouse carcinoma cells; test: Mouse colon CT26 syngeneic tumor model; settings: BALB/c mice, after 20 days of treatment; Compound 163 30 mg/kg BID, α-CTLA-4 or IgG control 10 mg/kg BIW
[2] = system: B16-F10 mouse melanoma cells; test: Mouse melanoma B16-F10 syngeneic tumor model; settings: C57BL/6 mice, after 14 days of treatment; Compound 163 30 mg/kg BID, α-PD-1 or IgG control 10 mg/kg BIW
786-O-Hif-Luc cells = test: Luciferase assay (HIF responsive element reporter); settings: 24 h, read-out: Mean Luciferase EC50 (nM)
Method: A pool of infected cells were then selected against 2 μg/mL of puromycin (P8833, Sigma) for 10 days followed by limited dilution to select single clones.
Each concentration was tested in triplicate. After about 24 hours, luciferase activity was determined using ONE-Glo Luciferase Assay Reagent (E6110, Promega) following the manufacturer's recommended procedure. EC50 were calculated using Dotmatics software.

CS(=O)(=O)c1ccc(Oc2cc(F)cc(C#N)c2)c2c1[C@H](O)C(F)(F)C2 [Compound 163, (S)-3-((2,2-Difluoro-1-hydroxy-7-(methylsulfonyl)-2,3-dihydro-1H-inden-4-yl)oxy)-5-fluorobenzonitrile]
Tumor size (mm^3) Mean ± SEM [1]: 1612 ± 305 mm^3
Tumor size (mm^3) Mean ± SEM [2]: 2133.89 ± 306.44 mm^3
EC50 (786-O-Hif-Luc cells): < 50 nM
